Results: patent US10959432B2, “Microbiocidal oxadiazole derivatives” (Syngenta Participations AG, priority 2016, dated 2021)

Columns and labels:
[1] = tested on: Puccinia recondita f. sp. tritici; assay: Fungicidal activity against Puccinia recondita f. sp. tritici / wheat / leaf disc preventative (brown rust); format: in vivo; details: foliar, 200 ppm in the applied formulation, wheat leaf segments cv. Kanzler, preventative (inoculated 1 day after application), assessed 7 to 9 days after application, read-out: disease control compared to untreated control leaf disks
Procedure, shortened: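 Wheat cv. Kanzler leaf segments on agar sprayed with formulated compound diluted in water, inoculated with P. recondita spores 1 day later. Incubated at 19C, 75% rh, 12 h light/12 h dark; scored 7 to 9 days after application as percent disease control versus untreated segments. Test rate 200 ppm.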

[2] = tested on: Puccinia recondita f. sp. tritici; assay: Fungicidal activity against Puccinia recondita f. sp. tritici / wheat / leaf disc curative (brown rust); format: in vivo; details: foliar, 200 ppm in the applied formulation, wheat leaf segments cv. Kanzler, curative (applied 1 day after inoculation), assessed 6 to 8 days after application, read-out: disease control compared to untreated control leaf disks
Procedure, shortened: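 Wheat cv. Kanzler leaf segments on agar, spore-inoculated, held dark at 19° C./75% RH; formulated compound in water sprayed 1 day post-inoculation (curative). Incubated 19° C., 75% RH, 12 h light/12 h dark; percent disease control vs untreated scored 6 to 8 days after application.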

Uromyces viciae-fabae = assay: Fungicidal activity against Uromyces viciae-fabae / field bean / leaf disc preventative (faba-bean rust); format: in vivo; details: foliar, 288 h, 100 ppm in the applied formulation, field bean leaf discs, preventative (inoculated two hours after application), assessed 12 days after application, read-out: disease control compared to untreated control leaf discs
Method: Leaf disks or leaf segments of various plant species are cut from plants grown in a greenhouse. The cut leaf disks or segments are placed in multiwell plates (24-well format) onto water agar. The leaf disks are sprayed with a test solution before (preventative) or after (curative) inoculation. Compounds to be tested are prepared as DMSO solutions (max. 10 mg/ml) which are diluted to the appropriate concentration with 0.025% Tween20 just before spraying. The inoculated leaf disks or segments are incubated under defined conditions (temperature, relative humidity, light, etc.) according to the respective test system. A single evaluation of disease level is carried out 3 to 14 days after inoculation, depending on the pathosystem. Percent disease control relative to the untreated check leaf disks or segments is then calculated. General Examples of Liquid Culture Tests in Well Plates:
Example 5: Fungicidal Activity Against Uromyces viciae-fabae/Field Bean/Leaf Disc Preventative (Faba-Bean Rust)
Field bean leaf discs are placed on water agar in multiwell plates (96-well format) and 10 μl of the formulated test compound diluted in acetone and a spreader pipetted onto the leaf disc. Two hours after application leaf discs are inoculated by spraying a spore suspension on the lower leaf surface. The leaf discs are incubated in a climate cabinet at 22° C. with 18 hour day and 70% relative humidity. The activity of a compound is assessed as percent disease control compared to untreated when an appropriate level of disease damage appears in untreated check leaf disks (12 days after application).
The following compounds at 100 ppm in the applied formulation give at least 80% disease control in this test when compared to untreated control leaf discs under the same conditions, which show extensive disease development.

Phakopsora pachyrhizi = assay: Fungicidal activity against Phakopsora pachyrhizi / soybean / leaf disc preventative (Asian soybean rust); format: in vivo; details: foliar, 200 ppm in the applied formulation, soybean leaf disks, preventative (inoculated one day after application), assessed 12 to 14 days after application, read-out: disease control compared to untreated control leaf disks
Procedure, shortened: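 Soybean leaf discs on water agar sprayed with formulated compound diluted in water; spore suspension sprayed on lower leaf surface one day later. Incubated 24-36 h dark at 20° C, 75% rh, then 20° C, 12 h light/day, 75% rh. Percent disease control versus untreated scored 12 to 14 days after application.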

[3] = tested on: Glomerella laqenarium (Colletotrichum lagenarium); assay: Fungicidal activity against Glomerella lagenarium (Colletotrichum lagenarium) liquid culture / cucumber / preventative (anthracnose); format: cell-based; details: Colletotrichum orbiculare; 20 ppm in the applied formulation; liquid culture in PDB, 24° C., 3 to 4 days after application; read-out: disease control compared to untreated control (inhibition of growth measured photometrically)
Procedure, shortened: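 Cryostored conidia mixed into potato dextrose broth and added to test compound (from DMSO solution) in microtiter plates. Incubated at 24 °C; growth inhibition read photometrically 3 to 4 days after application, as percent activity versus untreated check.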

CN(C(=O)c1ccc(-c2noc(C(F)(F)F)n2)cc1)C1CCOC1 (stereo not drawn) [Compound 1a.7, N-methyl-N-tetrahydrofuran-3-yl-4-[5-(trifluoromethyl)-1,2,4-oxadiazol-3-yl]benzamide]
≥ 80%: pest or weed control at 200 ppm [1] | pest or weed control at 200 ppm [2] | pest or weed control at 100 ppm (Uromyces viciae-fabae)

COC(=O)C1(NC(=O)c2ccc(-c3noc(C(F)(F)F)n3)cc2)CCCN(OC)C1 (stereo not drawn) [Compound 1a.8, methyl 1-methoxy-3-[[4-[5-(trifluoromethyl)-1,2,4-oxadiazol-3-yl]benzoyl]amino]piperidine-3-carboxylate]
≥ 80%: pest or weed control at 200 ppm [2] | pest or weed control at 100 ppm (Uromyces viciae-fabae)

CN(C(=O)c1ccc(-c2noc(C(F)(F)F)n2)cc1)C1CCSC1 (stereo not drawn) [Compound 1a.9, N-methyl-N-tetra-hydrothiophen-3-yl-4-[5-(trifluoromethyl)-1,2,4-oxadiazol-3-yl]benzamide]
≥ 80%: pest or weed control at 200 ppm [2] | pest or weed control at 100 ppm (Uromyces viciae-fabae)

CN(CC1OCCO1)C(=O)c1ccc(-c2noc(C(F)(F)F)n2)cc1F [Compound 1b.2, N-(1,3-dioxolan-2-ylmethyl)-2-fluoro-N-methyl-4-[5-(trifluoromethyl)-1,2,4-oxadiazol-3-yl]benzamide]
≥ 80%: pest or weed control at 200 ppm [1] | pest or weed control at 200 ppm [2] | pest or weed control at 200 ppm (Phakopsora pachyrhizi) | pest or weed control at 100 ppm (Uromyces viciae-fabae)

CC1(C)OCC(CNC(=O)c2ccc(-c3noc(C(F)(F)F)n3)cc2F)O1 (stereo not drawn) [Compound 1b.6, N-[(2,2-dimethyl-1,3-dioxolan-4-yl)methyl]-2-fluoro-4-[5-(trifluoromethyl)-1,2,4-oxadiazol-3-yl]benzamide]
≥ 80%: pest or weed control at 200 ppm [1] | pest or weed control at 200 ppm [2] | pest or weed control at 200 ppm (Phakopsora pachyrhizi) | pest or weed control at 100 ppm (Uromyces viciae-fabae)

CN(C(=O)c1ccc(-c2noc(C(F)(F)F)n2)cc1F)C1CCOC1 (stereo not drawn) [Compound 1b.7, 2-fluoro-N-methyl-N-tetrahydrofuran-3-yl-4-[5-(trifluoromethyl)-1,2,4-oxadiazol-3-yl]benzamide]
≥ 80%: pest or weed control at 200 ppm [2] | pest or weed control at 100 ppm (Uromyces viciae-fabae)

CN(CC1CCCCO1)C(=O)c1ccc(-c2noc(C(F)(F)F)n2)cc1F (stereo not drawn) [Compound 1b.10, 2-fluoro-N-methyl-N-(tetrahydropyran-2-ylmethyl)-4-[5-(trifluoromethyl)-1,2,4-oxadiazol-3-yl]benzamide]
≥ 80%: pest or weed control at 200 ppm [2] | pest or weed control at 100 ppm (Uromyces viciae-fabae)

CC(NC(=O)c1ccc(-c2noc(C(F)(F)F)n2)cc1F)C1(C)OCCO1 (stereo not drawn) [Compound 1b.12, 2-fluoro-N-[1-(2-methyl-1,3-dioxolan-2-yl)ethyl]-4-[5-(trifluoromethyl)-1,2,4-oxadiazol-3-yl]benzamide]
≥ 80%: pest or weed control at 200 ppm [2] | pest or weed control at 100 ppm (Uromyces viciae-fabae)

O=C(NCC1COCCO1)c1ccc(-c2noc(C(F)(F)F)n2)cc1Cl (stereo not drawn) [Compound 1b.13, 2-chloro-N-(1,4-dioxan-2-ylmethyl)-4-[5-(trifluoromethyl)-1,2,4-oxadiazol-3-yl]benzamide]
≥ 80%: pest or weed control at 200 ppm [1] | pest or weed control at 200 ppm [2] | pest or weed control at 100 ppm (Uromyces viciae-fabae)

COC(=O)CNC(=O)c1ccc(-c2noc(C(F)(F)F)n2)cc1 [Compound 3a.4, methyl 2-[[4-[5-(trifluoromethyl)-1,2,4-oxadiazol-3-yl]benzoyl]amino]acetate]
≥ 80%: pest or weed control at 200 ppm [1] | pest or weed control at 200 ppm (Phakopsora pachyrhizi) | inhibition at 20 ppm [3] | pest or weed control at 100 ppm (Uromyces viciae-fabae)

O=C(NCCc1cccs1)c1ccc(-c2noc(C(F)(F)F)n2)cc1 [Compound 5a.7, N-[2-(2-thienyl)ethyl]-4-[5-(trifluoromethyl)-1,2,4-oxadiazol-3-yl]benzamide]
≥ 80%: pest or weed control at 200 ppm [1] | pest or weed control at 200 ppm (Phakopsora pachyrhizi) | inhibition at 20 ppm [3] | pest or weed control at 100 ppm (Uromyces viciae-fabae)

O=C(Nc1cn[nH]c1)c1ccc(-c2noc(C(F)(F)F)n2)cc1F [Compound 5b.7, 2-fluoro-N-(1H-pyrazol-4-yl)-4-[5-(trifluoromethyl)-1,2,4-oxadiazol-3-yl]benzamide]
≥ 80%: pest or weed control at 200 ppm [1] | pest or weed control at 200 ppm (Phakopsora pachyrhizi) | inhibition at 20 ppm [3] | pest or weed control at 100 ppm (Uromyces viciae-fabae)
